Measurements reported in patent US20230278972A1, “SUBSTITUTED HALOALKYL SULFONANILIDE HERBICIDES” (FMC Corporation, priority 2020, published 2023).

What was measured:
Type in all cases: in vivo
[1] = system: kochia (Bassia scoparia); assay: Test A postemergence, kochia; conditions: Postemergence, 0 to 100 scale (0 no effect, 100 complete control); for Plant response rating, Kochia: 125 g ai/ha; for Kochia plant response rating: 500 g ai/ha, visual injury vs untreated controls after approx. 10 days
Procedure, shortened: (§1)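 Compounds in non-phytotoxic solvent with surfactant. Soil: loam/sand. Preemergence via directed soil spray after seeding; postemergence on seedlings 2–10 cm, one- to two-leaf.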

[2] = system: blackgrass (Alopecurus myosuroides); assay: Test A postemergence, blackgrass; conditions: Postemergence, 0 to 100 scale (0 no effect, 100 complete control); for Plant response rating, Blackgrass: 125 g ai/ha; for Blackgrass plant response rating: 500 g ai/ha, visual injury vs untreated controls after approx. 10 days
Procedure, shortened: as §1

[3] = system: ragweed (common ragweed, Ambrosia artemisiifolia); assay: Test A preemergence, ragweed; conditions: Preemergence; for Plant response rating, Ragweed: 0 to 100 scale (0 no effect, 100 complete control); for Ragweed plant response rating: visual injury on 0 to 100 scale (0 no effect, 100 complete control), approximately 10 days
Procedure, shortened: as §1

[4] = system: Foxtail, Giant (giant foxtail, Setaria faberi); assay: Test A preemergence, Foxtail, Giant; conditions: Preemergence; for Plant response rating, Foxtail, Giant: 0 to 100 scale (0 no effect, 100 complete control); for Foxtail, Giant plant response rating: visual injury on 0 to 100 scale (0 no effect, 100 complete control), approximately 10 days
Procedure, shortened: as §1

[5] = system: corn (Zea mays); assay: Test A postemergence, corn; conditions: Postemergence, 0 to 100 scale (0 no effect, 100 complete control); for Plant response rating, Corn: 125 g ai/ha; for Corn plant response rating: 500 g ai/ha, visual injury vs untreated controls after approx. 10 days
Procedure, shortened: as §1

[6] = system: wheat (Triticum aestivum); assay: Test A postemergence, wheat; conditions: Postemergence, 0 to 100 scale (0 no effect, 100 complete control); for Plant response rating, Wheat: 125 g ai/ha; for Wheat plant response rating: 500 g ai/ha, visual injury vs untreated controls after approx. 10 days
Procedure, shortened: (§2)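 After sowing into a sand-amended loam, pots for the preemergence test were treated by spraying directly onto soil. In parallel, seedlings at the one- to two-leaf stage and 2 to 10 cm tall were treated postemergence with the identical surfactant-containing formulation.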

[7] = system: pigweed (Amaranthus retroflexus); assay: Test A preemergence, pigweed; conditions: for Plant response rating, Pigweed: 0 to 100 scale (0 no effect, 100 complete control); for Pigweed plant response rating: visual injury on 0 to 100 scale (0 no effect, 100 complete control), approximately 10 days
Description: Seeds of plant species selected from barnyardgrass (Echinochloa crus-galli), kochia (Bassia scoparia), ragweed (common ragweed, Ambrosia artemisiifolia), Ryegrass, Italian (Italian ryegrass, Lolium multiflorum), Foxtail, Giant (giant foxtail, Setaria faberi), and pigweed (Amaranthus retroflexus) were planted into a blend of loam soil and sand and treated preemergence with a directed soil spray using test chemicals formulated in a non-phytotoxic solvent mixture which included a surfactant. At the same time, plants selected from these weed species and also wheat (Triticum aestivum), corn (Zea mays), blackgrass (Alopecurus myosuroides), and galium (catchweed bedstraw, Galium aparine) were planted in pots containing the same blend of loam soil and sand and treated with postemergence applications of test chemicals formulated in the same manner. Plants ranged in height from 2 to 10 cm and were in the one- to two-leaf stage for the postemergence treatment. […] A dash (-) response means no test result.

[8] = system: Foxtail, Giant (giant foxtail, Setaria faberi); assay: Test A postemergence, Foxtail, Giant; conditions: Postemergence, 0 to 100 scale (0 no effect, 100 complete control); for Plant response rating, Foxtail, Giant: 125 g ai/ha; for Foxtail, Giant plant response rating: 500 g ai/ha, visual injury vs untreated controls after approx. 10 days
Procedure, shortened: as §1

[9] = system: barnyardgrass (Echinochloa crus-galli); assay: Test A preemergence, barnyardgrass; conditions: Preemergence, 0 to 100 scale (0 no effect, 100 complete control)
Procedure, shortened: as §1

[10] = system: Ryegrass, Italian (Italian ryegrass, Lolium multiflorum); assay: Test A preemergence, Ryegrass, Italian; conditions: Preemergence; for Plant response rating, Ryegrass, Italian: 0 to 100 scale (0 no effect, 100 complete control); for Ryegrass, Italian plant response rating: visual injury on 0 to 100 scale (0 no effect, 100 complete control), approximately 10 days
Procedure, shortened: as §1

[11] = system: pigweed (Amaranthus retroflexus); assay: Test A postemergence, pigweed; conditions: Postemergence, 0 to 100 scale (0 no effect, 100 complete control); for Plant response rating, Pigweed: 125 g ai/ha; for Pigweed plant response rating: 500 g ai/ha, visual injury vs untreated controls after approx. 10 days
Procedure, shortened: as §1

[12] = system: galium (catchweed bedstraw, Galium aparine); assay: Test A postemergence, galium; conditions: Postemergence, 0 to 100 scale (0 no effect, 100 complete control); for Plant response rating, Galium: 125 g ai/ha; for Galium plant response rating: 500 g ai/ha, visual injury vs untreated controls after approx. 10 days
Procedure, shortened: as §2

[13] = system: ragweed (common ragweed, Ambrosia artemisiifolia); assay: Test A postemergence, ragweed; conditions: Postemergence, 0 to 100 scale (0 no effect, 100 complete control); for Plant response rating, Ragweed: 125 g ai/ha; for Ragweed plant response rating: 500 g ai/ha, visual injury vs untreated controls after approx. 10 days
Procedure, shortened: as §1

[14] = system: kochia (Bassia scoparia); assay: Test A preemergence, kochia; conditions: Preemergence; for Plant response rating, Kochia: 0 to 100 scale (0 no effect, 100 complete control); for Kochia plant response rating: visual injury on 0 to 100 scale (0 no effect, 100 complete control), approximately 10 days
Procedure, shortened: as §1

[15] = system: Ryegrass, Italian (Italian ryegrass, Lolium multiflorum); assay: Test A postemergence, Ryegrass, Italian; conditions: Postemergence, 0 to 100 scale (0 no effect, 100 complete control); for Plant response rating, Ryegrass, Italian: 125 g ai/ha; for Ryegrass, Italian plant response rating: 500 g ai/ha, visual injury vs untreated controls after approx. 10 days
Procedure, shortened: as §1

[16] = 125 g ai/ha, visual injury, approx. 10 days

| Compound | Plant response rating, Kochia [1] | Kochia plant response rating [1] | Plant response rating, Blackgrass [2] | Blackgrass plant response rating [2] | Plant response rating, Ragweed [3, 16] | Plant response rating, Foxtail, Giant [4, 16] | Plant response rating, Corn [5] | Corn plant response rating [5] | Plant response rating, Wheat [6] | Wheat plant response rating [6] | Plant response rating, Pigweed [7, 16] | Plant response rating, Foxtail, Giant [8] | Foxtail, Giant plant response rating [8] | Plant response rating, Barnyardgrass [9, 16] | Plant response rating, Barnyardgrass ([9]; 500 g ai/ha) | Plant response rating, Ryegrass, Italian [10, 16] | Plant response rating, Pigweed [11] | Pigweed plant response rating [11] | Plant response rating, Galium [12] | Galium plant response rating [12] | also measured |
| --- | --- | --- | --- | --- | --- | --- | --- | --- | --- | --- | --- | --- | --- | --- | --- | --- | --- | --- | --- | --- | --- |
| Cc1cc(C)c(C(=O)N2CCC(F)(F)C2)cc1NS(=O)(=O)C(F)(F)F [Compound 202] | 20 | 50 | 0 | 0 | 70 | 60 | 0 | 20 | 30 | 60 | 100 | 0 | 70 | 30 | 90 | 40 | 70 | 100 | 50 | 80 | Plant response rating, Ragweed ([3]; 500 g ai/ha): 90; Plant response rating, Foxtail, Giant ([4]; 500 g ai/ha): 70; Plant response rating, Pigweed ([7]; 500 g ai/ha): 100; Plant response rating, Ryegrass, Italian ([10]; 500 g ai/ha): 70; Plant response rating, Ragweed [13]: 80; Ragweed plant response rating [13]: 90; Plant response rating, Kochia [14, 16]: 40; Plant response rating, Kochia ([14]; 500 g ai/ha): 80; Plant response rating, Ryegrass, Italian [15]: 20; Ryegrass, Italian plant response rating [15]: 70 |
| Cc1cc(Cl)c(NS(=O)(=O)C(F)(F)F)cc1C(=O)N1CCC(Cl)CC1 [Compound 224] | 50 | 70 | 0 | 40 | 50 | 90 | 10 | 60 | 30 | 70 | 100 | 30 | 70 | 70 | 100 | 50 | 60 | 100 | 90 | 90 | Plant response rating, Ragweed ([3]; 500 g ai/ha): 80; Plant response rating, Foxtail, Giant ([4]; 500 g ai/ha): 100; Plant response rating, Pigweed ([7]; 500 g ai/ha): 100; Plant response rating, Ryegrass, Italian ([10]; 500 g ai/ha): 100; Plant response rating, Ragweed [13]: 50; Ragweed plant response rating [13]: 90; Plant response rating, Kochia [14, 16]: 0; Plant response rating, Kochia ([14]; 500 g ai/ha): 90; Plant response rating, Ryegrass, Italian [15]: 30; Ryegrass, Italian plant response rating [15]: 60 |
| Cc1cc(C)c(C2=NOC(C)(CCl)C2)cc1NS(=O)(=O)C(F)(F)F (stereo not drawn) [Compound 226] | 10 | 70 | 20 | 50 | 30 | 90 | 0 | 70 | 0 | 60 | 80 | 20 | 60 | 90 | 100 | 90 | 30 | 80 | 60 | 80 | Ragweed plant response rating ([3]; 500 g ai/ha): 90; Foxtail, Giant plant response rating ([4]; 500 g ai/ha): 100; Pigweed plant response rating ([7]; 500 g ai/ha): 100; Ryegrass, Italian plant response rating ([10]; 500 g ai/ha): 100; Plant response rating, Ragweed [13]: 30; Ragweed plant response rating [13]: 90; Plant response rating, Kochia [14, 16]: 40; Kochia plant response rating ([14]; 500 g ai/ha): 90; Plant response rating, Ryegrass, Italian [15]: 30; Ryegrass, Italian plant response rating [15]: 60 |
| Cc1cc(C)c(N(S(=O)(=O)C(F)(F)F)S(=O)(=O)C(F)(F)F)cc1C1=NOC(C)(CCl)C1 (stereo not drawn) [Compound 227] | 10 | 60 | 0 | 20 | 30 | 90 | 10 | 0 | 70 | 40 | 50 | 0 | 20 | 60 | 90 | 40 | 20 | 50 | 40 | 90 | Ragweed plant response rating ([3]; 500 g ai/ha): 80; Foxtail, Giant plant response rating ([4]; 500 g ai/ha): 100; Pigweed plant response rating ([7]; 500 g ai/ha): 80; Ryegrass, Italian plant response rating ([10]; 500 g ai/ha): 100; Plant response rating, Ragweed [13]: 0; Ragweed plant response rating [13]: 10; Plant response rating, Kochia [14, 16]: 60; Kochia plant response rating ([14]; 500 g ai/ha): 90; Plant response rating, Ryegrass, Italian [15]: 0; Ryegrass, Italian plant response rating [15]: 0 |
| Cc1cc(C)c(C2=NOC3(CCC3)C2)cc1NS(=O)(=O)C(F)(F)F [Compound 228] | 20 | 80 | 0 | 0 | 10 | 90 | 10 | 70 | 0 | 70 | 100 | 0 | 40 | 100 | 100 | 100 | 30 | 70 | 80 | 90 | Ragweed plant response rating ([3]; 500 g ai/ha): 70; Foxtail, Giant plant response rating ([4]; 500 g ai/ha): 100; Pigweed plant response rating ([7]; 500 g ai/ha): 100; Ryegrass, Italian plant response rating ([10]; 500 g ai/ha): 100; Plant response rating, Ragweed [13]: 20; Ragweed plant response rating [13]: 30; Plant response rating, Kochia [14, 16]: 60; Kochia plant response rating ([14]; 500 g ai/ha): 90; Plant response rating, Ryegrass, Italian [15]: 0; Ryegrass, Italian plant response rating [15]: 60 |
